Measured values as given in patent publication US12083089B2, “Compositions and methods for stimulating ventilatory and/or respiratory drive” (CASE WESTERN RESERVE UNIVERSITY, priority 2015, dated 2024).

Key:
[1] = system: adult male rats; test: Hargreaves Hind-paw Latency Test, morphine 1 mg/kg; type: in vivo, rat; conditions: given alone, morphine sulfate 1 mg/kg IV
[2] = system: rats; test: Sedation observation in morphine-treated rats; conditions: morphine 10 mg/kg IV plus vehicle
[3] = system: freely moving rats; test: Tail-flick latency (TFL) test; type: in vivo, rat; conditions: for Tail-Flick latency: vehicle-pretreated rats, morphine 10 mg/kg IV
[4] = system: adult male rats; test: Von Frey Test, morphine 1 mg/kg; type: in vivo, rat; conditions: given alone, morphine 1 mg/kg IV

Compound: CN1CC[C@]23c4c5ccc(O)c4O[C@H]2[C@@H](O)C=C[C@H]3[C@H]1C5 [Morphine, morphine]
- Hargreaves hind-paw withdrawal latency ([1]; D-cystine diME 500 μmol/kg IV, FIG. 26 study): 16.3 ± 1.8 s
- Hargreaves hind-paw withdrawal latency ([1]; L-cystine diME 500 μmol/kg IV, FIG. 24 study): 19.5 ± 0.4 s
- time for which full mobility was not evident [2]: at least 2 h
- duration of the increase in TFL ([3]; morphine 10 mg/kg IV in vehicle-treated rats): at least 4 h
- Tail-Flick latency ([3]; post-morphine - 30 min): 12 ± 0.0 s
- Tail-Flick latency ([3]; post-morphine - 60 min): 12 ± 0.0 s
- Tail-Flick latency ([3]; post-morphine - 90 min): 11.7 ± 0.2 s
- Tail-Flick latency ([3]; post-morphine - 120 min): 11.1 ± 0.2 s
- Tail-Flick latency ([3]; post-morphine - 180 min): 8.3 ± 0.3 s
- Tail-Flick latency ([3]; post-morphine - 210 min): 5.6 ± 0.3 s
- Tail-Flick latency ([3]; post-morphine - 240 min): 4.3 ± 0.3 s
- Tail-Flick latency ([3]; post-morphine - 360 min): 3.3 ± 0.3 s
- force needed to initiate hind-paw withdrawal (Von Frey) ([4]; D-cystine diME 500 μmol/kg IV, FIG. 27 study): 177±8 grams
- force needed to initiate hind-paw withdrawal (Von Frey) ([4]; L-cystine diME 500 μmol/kg IV, FIG. 25 study): 88.3 ± 7.0 g
